Results from patent US8642597B2, “Pyrazole compounds for controlling invertebrate pests” (BASF SE, priority 2007, dated 2014).

Experiments:
Format in all cases: in vivo
[1] = system: Cowpea Aphid (aphis craccivora); test: Cowpea aphid (aphis craccivora), spray on potted cowpea plants; settings: population reduction assessed after 24, 72 and 120 hours, in comparison with untreated controls
Description: The active compounds were formulated in 50:50 (vol:vol) acetone:water. The test solution was prepared at the day of use.
Potted cowpea plants colonized with 100-150 aphids of various stages were sprayed after the pest population had been recorded. Population reduction was assessed after 24, 72, and 120 hours.

[2] = system: Boll Weevil (Anthonomus grandis); test: Boll weevil (Anthonomus grandis), insect diet microtiter plate test; settings: 120 h, concentration of the test solution 2500 mg/L, egg and larval mortality after 5 days
Description: The compounds were formulated in 75:25 (vol:vol) water:DMSO.
For evaluating control of boll weevil (Anthonomus grandis) the test unit consisted of 24-well-microtiter plates containing an insect diet and 20-30 A. grandis eggs. Different concentrations of formulated compounds were sprayed onto the insect diet at 20 μl, using a custom built micro atomizer, at two replications. After application, the microtiter plates were incubated at 23±1° C. and 50±5% relative humidity for 5 days. Egg and larval mortality was then visually assessed.

[3] = system: Green Peach Aphid (Myzus persicae, Mixed Life Stages); test: Green peach aphid (Myzus persicae, mixed life stages), pepper leaf dip test; settings: foliar, 120 h, after 5 days, in comparison with untreated controls
Text: (§1) The active compounds were formulated in 50:50 (vol:vol) acetone:water and 100 ppm Kinetica™ surfactant.
Pepper plants in the 2nd leaf-pair stage (variety ‘California Wonder’) were infested with approximately 40 laboratory-reared aphids by placing infested leaf sections on top of the test plants. The leaf sections were removed after 24 hr. The leaves of the intact plants were dipped into gradient solutions of the test compound and allowed to dry. Test plants were maintained under fluorescent light (24 hour photoperiod) at about 25° C. and 20-40% relative humidity. Aphid mortality on the treated plants, relative to mortality on check plants, was determined after 5 days.

[4] = system: Cotton Aphid (aphis gossypii, Mixed Life Stages); test: Cotton aphid (aphis gossypii, mixed life stages), cotyledon dip test; settings: 120 h, mortality counts after 5 days, in comparison with untreated controls
Text: as §1
Cotton plants at the cotyledon stage (one plant per pot) were infested by placing a heavily infested leaf from the main colony on top of each cotyledon. The aphids were allowed to transfer to the host plant overnight, and the leaf used to transfer the aphids was removed. The cotyledons were dipped in the test solution and allowed to dry. After 5 days, mortality counts were made.

[5] = system: Vetch Aphid (Megoura viciae); test: Vetch aphid (Megoura viciae), bean leaf disk microtiterplate test; settings: foliar, 144 h, concentration of the test solution 2500 mg/L, 6 days
Description: The active compounds were formulated in 1:3 (vol:vol) DMSO:water with different concentrations of formulated compounds.
Bean leaf disks were placed into microtiterplates filled with 0.8% agar-agar and 2.5 ppm OPUS™. The leaf disks were sprayed with 2.5 μl of the test solution and 5 to 8 adult aphids were placed into the microtiterplates which were then closed and kept at 23±1° C. and 50±5% relative humidity under fluorescent light for 6 days. Mortality was assessed on the basis of vital, reproduced aphids. Aphid mortality and fecundity was then visually assessed.

SMILES	mortality at 300 ppm [1]	mortality at 2500 µg/mL [2]	mortality at 300 ppm [3]	mortality at 300 ppm [4]	mortality at 2500 µg/mL [5]
O=C(Nc1cccnc1)c1cnn(-c2ccccc2)c1 [Compound 106]	≥ 75%	100%	–	–	–
CC(C)n1cc(C(=O)Nc2cccnc2)cn1 [Compound 200]	≥ 75%	–	≥ 50%	≥ 75%	–
O=C(Nc1cccnc1)c1cnn(C(F)F)c1C(F)(F)F [Compound 190]	≥ 75%	100%	≥ 50%	≥ 75%	≥ 80%
CCCn1cc(C(=O)Nc2cccnc2)cn1 [Compound 108]	≥ 75%	100%	≥ 50%	≥ 75%	≥ 80%
Cn1ccc(C(=O)Nc2cccnc2)n1 [Compound 1]	≥ 75%	–	≥ 50%	≥ 75%	–
O=C(Nc1cccnc1)c1cnn(C2CC2)c1 [Compound 119]	≥ 75%	–	≥ 50%	≥ 75%	≥ 80%
O=C(Nc1cccnc1)c1cnn(Cc2ccc(Cl)cc2)c1 [Compound 81]	≥ 75%	100%	≥ 50%	–	–
O=C(Nc1cccnc1)c1cn(C(F)F)nc1C(F)F [Compound 194]	≥ 75%	100%	≥ 50%	≥ 75%	≥ 80%
O=C(Nc1cccnc1)c1cn(C(F)F)nc1C(F)(F)F [Compound 192]	≥ 75%	100%	≥ 50%	≥ 75%	–
CO/N=C(/Nc1cccnc1)c1cn(C)nc1C(F)(F)F [Compound 242]	≥ 75%	–	≥ 50%	≥ 75%	≥ 80%
COc1ccc(-n2ncc(C(=O)Nc3cccnc3)c2C(F)(F)F)cc1 [Compound 226]	–	–	≥ 50%	≥ 75%	≥ 80%
COc1ccccc1-n1ncc(C(=O)Nc2cccnc2)c1C(F)F [Compound 150]	–	100%	≥ 50%	≥ 75%	≥ 80%
C#CCN(C(=O)c1cn(C)nc1C(F)(F)F)c1cccnc1 [Compound 141]	≥ 75%	–	≥ 50%	≥ 75%	≥ 80%
O=C(Nc1cccnc1)c1cnn(-c2ccc(F)cc2)c1 [Compound 113]	≥ 75%	–	–	–	–
CCn1ncc(C(=O)Nc2cccnc2)c1C [Compound 72]	≥ 75%	–	–	≥ 75%	≥ 80%
O=C(Nc1cccnc1)c1cn(-c2ccc([N+](=O)[O-])cc2)nc1C(F)F [Compound 171]	–	100%	–	–	–
O=C(Nc1cccnc1)c1cnn(C(F)F)c1C(F)F [Compound 188]	≥ 75%	100%	≥ 50%	≥ 75%	–
Cc1c(C(=O)N(C)c2cccnc2)cnn1C [Compound 178]	≥ 75%	–	≥ 50%	≥ 75%	–
O=C(Nc1cccnc1)c1cnn(-c2ccc(Cl)cc2)c1C(F)F [Compound 86]	≥ 75%	100%	≥ 50%	≥ 75%	–
CC(C)n1cc(C(=O)Nc2cccnc2)cn1 [Compound 97]	–	–	–	–	≥ 80%
Cc1ccc(S(=O)(=O)N(C(=O)c2cn(C)nc2C(F)(F)F)c2cccnc2)cc1 [Compound 136]	≥ 75%	–	≥ 50%	≥ 75%	≥ 80%
CCn1cc(C(=O)N(C)c2cccnc2)c(C(F)F)n1 [Compound 182]	≥ 75%	–	≥ 50%	≥ 75%	≥ 80%
Cn1ncc(C(=O)Nc2cccnc2)c1-c1ccccc1 [Compound 71]	–	–	≥ 50%	≥ 75%	≥ 80%
